Measurements from patent publication US20260028390A1, “ALPHA1-ANTITRYPSIN FOR USE IN THE TREATMENT OF DISEASES OR DISORDERS OF THE NERVOUS SYSTEM SUCH AS CHRONIC INFLAMMATORY DEMYELINATING POLYNEUROPATHY” (Ageronix SA, priority 2022, published 2026).
“And” between values parts separate entries of the source, which are not always exact repeats. Equal entries are not always repeated.

Assays:
Human Schwann cells = test: TNFα-induced Schwann cell activation, target gene expression by qPCR; assay type: cell-based; conditions: AAT 50 μM pre-treatment 24 hours, TNFα 10 ng/mL 24 hours
Experimental: Human Schwann cells (P10351, Innoprot) were seeded in 12 well plates at 120000 cells per well in DMEM. Cells were pre-treated with either buffer (controls) or AAT (50 μM) for 24 hours before stimulation by TNFα (10 ng/mL). The plates were then incubated at 37° C. for 24 hours. The RNA was extracted and selected target gene expression was measured by qPCR.
The genes evaluated for their regulation included the NF-κB early gene response NFKBIA, as well as the TNFα and TNFR1 genes. Expression of the gene coding for the IL-6 pro-inflammatory cytokine was also evaluated.

plasma NfL = test: Plasma NfL, CMT mice treated with AAT 180 mg/kg/day sc; assay type: in vivo, mouse
Excerpt: (§1) Animals were received at 6 weeks of age and housed under controlled conditions for the duration of the study. The study comprised two groups of 8 transgenic mice (CMT mice) each and one group of 8 age matched wild type (WT) C57B16 mice, serving as positive control. Animals were assigned to the following subcutaneous treatments twice daily at 7:00 AM and 7:00 PM for 2 weeks, starting from 8 weeks and up to 10 weeks of age: • Wild-type (WT, no disease) mice receiving vehicle, 0.9% NaCl (positive control) • CMT1A mice receiving vehicle, 0.9% NaCl (negative control) • CMT1A mice receiving AAT at 90 mg/kg per injection (daily dose 180 mg/kg)
(§2) The efficacy parameters included: • neuromuscular performance (rotarod latency to fall and grip strength test), • sciatic nerve electrophysiology (CMAP amplitude and NCV) • cytokine (IL-6 and TNFα), as well as NfL analysis • sciatic nerve histology (number of axons and axonal diameter),
As supportive information for the mode of action of AAT in CMT, plasma concentration of interleukin 6 (IL-6) and TNFα were measured at Day 1 (8 weeks), Day 15 (10 weeks) and Day 30 (12 weeks). At the same timepoints, plasma levels of the biomarker of nerve damage, NfL were determined.

plasma TNFα = test: Plasma TNFα quantification, CIDP mouse model; assay type: in vivo; conditions: for Plasma TNFα concentration (Mean ± SD): CIDP mice; for TNFα conc: per animal, listed as hAAT
Experimental: C57BL/6 mice were received at 8 weeks of age and housed under controlled conditions for the duration of the study. Three groups of 4 animals each were assigned to the following subcutaneous treatments twice daily at 7:00 AM and 7:00 PM for 2 weeks, from 20 to 35 days after the start of disease induction: • Wild type (WT) mice receiving the vehicle, 0.9% NaCl (positive control) • CIDP mice receiving the vehicle, 0.9% NaCl (negative control) • CIDP mice receiving human AAT (AAT), 50 mg/kg per injection
On the day preceding disease induction (Day 1), on the first (Day 20) and on the last (Day 35) treatment day, animals were subjected to blood samplings for the determination of neurofilament light chain (NfL), tumour necrosing factor alpha (TNFα) and TMPRSS5 levels, as described in FIG. 20. In addition, plasma levels of AAT were evaluated on the last treatment day.

[1] = test system: CMT1A mice B6.Cg-Tg(PMP22)C3Fbas/J; test: Rotarod latency to fall, CMT mice treated with AAT 180 mg/kg/day sc; assay type: in vivo, mouse
Experimental: CMT MOUSE MODEL: Non-humanized CMT1A mice B6.Cg-Tg(PMP22)C3Fbas/J (three copies of the PMP22 gene), three groups of 8 animals each.
DOSAGE: 180 mg/kg/day non-clinical grade AAT (Sigma)
ADMINISTRATION: Subcutaneous (SC) (bi-daily injection of 90 mg/kg)
as §1, §2
On the first day of treatment (Day 1), the neuromuscular and performance of animals was tested with a rotarod test and a grip strength test, as well as sciatic nerve electrophysiology test, which measured the compound muscle action potential (CMAP) and the nerve conduction velocity (NCV). After the last treatment on Day 15, these tests were repeated. Animals were then left untreated for 2 additional weeks to evaluate the duration of the treatment effect. Following the 2-week treatment-free period until 12 weeks of age (Day 30), the behavioural and electrophysiological tests were repeated.

[2] = test system: CMT1A mice B6.Cg-Tg(PMP22)C3Fbas/J; test: Sciatic nerve electrophysiology (CMAP, NCV), CMT mice treated with AAT 180 mg/kg/day sc; assay type: in vivo, mouse; conditions: 6 weeks old, CMT + hAAT
Microglial (HMC3) cells = test: IL6 and IL1B gene expression (qPCR) in IFNγ-induced microglia; assay type: cell-based, human; conditions: HMC3, IFNγ 10 ng/mL 24 h; AAT 25 μM or peptides 50 μM
Experimental: Microglial (HMC3) cells were seeded into 96-well plates at a density of approximately 2500 cells/well. Plasma derived AAT (Sigma, 25 μM) or peptide 8, peptide 9 or peptide 14 (Syngene, 50 μM) were added, and microglial activation was induced with interferon gamma (IFNγ) (10 ng/mL) for 24 h with no preincubation. Then, the RNA was extracted (RNAeasy mini kit, Qiagen) and the expression of the Interleukin-6 (IL6) and Interleukin-Ibeta (ILIB) genes were analysed. qPCR was performed with Syber green POWER UP master mix using 10 ng/well of cDNA in all gene expression results.

[3] = 8 weeks old (baseline, Day 1), CMT1A + AAT
[4] = 10 weeks old (Day 15, after 2 weeks AAT 90 mg/kg sc twice daily)
[5] = 12 weeks of age, after 2-week treatment-free period
[6] = 12 weeks old (Day 30, after 2-week treatment-free period)
[7] = Day 20, before compound treatment
[8] = 8 weeks old, CMT + hAAT 180 mg/kg/day SC, individual animal

alpha1-antitrypsin (AAT) protein
NF-κb pathway transcripts (Human Schwann cells): downregulated
expression of genes modulated by TNF-induced oxidative stress response (Human Schwann cells): inhibited
Plasma NfL (Mean ± SD) (plasma NfL; [3]): 3.83 ± 0.61 ng/mL
Plasma NfL (Mean ± SD) (plasma NfL; [4]): 1.96 ± 0.46 ng/mL
positive effect on NfL plasma levels (plasma NfL; [5]): remained significant
Plasma NfL (Mean ± SD) (plasma NfL; [6]): 4.25 ± 0.36 ng/mL
level of NfL (plasma NfL; CMT mice, AAT 90 mg/kg sc twice a day): reduced
plasma TNFα concentration compared to the CIDP+vehicle treated group (plasma TNFα; CIDP + AAT, day 35): significant decrease
Plasma TNFα concentration (Mean ± SD) (plasma TNFα; Day 1): 138.46 ± 18.58 pg/mL
Plasma TNFα concentration (Mean ± SD) (plasma TNFα; Day 20): 1397.62 ± 330.96 pg/mL
Plasma TNFα concentration (Mean ± SD) (plasma TNFα; Day 35): 1046.73 ± 144.47 pg/mL
Plasma TNFα, Mean Diff., CIDP + vehicle vs. CIDP + hAAT (Bonferroni's multiple comparisons test) (plasma TNFα; [7]): −187.9
Plasma TNFα, Significant?, CIDP + vehicle vs. CIDP + hAAT (Bonferroni's multiple comparisons test) (plasma TNFα; [7]): No
Plasma TNFα, Mean Diff., CIDP + vehicle vs. CIDP + hAAT (Bonferroni's multiple comparisons test) (plasma TNFα; Day 35): 385.1
TNFα conc, group MEAN (plasma TNFα; Day 1): 138.46 pg/mL
TNFα conc, group MEAN (plasma TNFα; Day 20): 1397.62 pg/mL
TNFα conc, group MEAN (plasma TNFα; Day 35): 1046.73 pg/mL
TNFα conc (plasma TNFα; Day 1 (before model induction)): 125.451 pg/mL and 165.501 pg/mL and 135.780 pg/mL and 127.127 pg/mL
TNFα conc (plasma TNFα; Day 20 (before compound treatment)): 1705.849 pg/mL and 1029.281 pg/mL and 1208.445 pg/mL and 1646.907 pg/mL
TNFα conc (plasma TNFα; Day 35): 910.997 pg/mL and 1161.216 pg/mL and 933.130 pg/mL and 1181.571 pg/mL
Rotarod latency (Mean ± SD) [1, 3]: 38.76 ± 4.90 s
Rotarod latency, group Mean ([1]; 8 weeks old, CMT + hAAT 180 mg/kg/day SC, 8 animals): 62.63 s
Rotarod latency, Mean/animal [1, 8]: 63.15 s and 51.81 s and 53.95 s and 52.25 s and 38.51 s and 92.09 s and 74.02 s and 75.23 s
Rotarod latency, set 1 [1, 8]: 55.48 s and 48.88 s and 60.00 s and 47.76 s and 30.45 s and 96.29 s and 74.06 s and 68.88 s
Rotarod latency, set 2 [1, 8]: 61.08 s and 61.14 s and 48.80 s and 53.19 s and 62.45 s and 79.58 s and 65.45 s and 74.87 s
Rotarod latency, set 3 [1, 8]: 72.89 s and 45.41 s and 53.05 s and 55.82 s and 22.62 s and 100.40 s and 82.56 s and 81.93 s
Rotarod latency (Mean ± SD) [1, 4]: 57.77 ± 19.19 s
rotarod latency to fall vs untreated group [1, 5]: non-significantly different
Rotarod latency (Mean ± SD) [1, 6]: 36.92 ± 1.66 s
Amplitude, group MEAN ([2]; 8 mice): 6.628 mV
Amplitude ([2]; individual mouse): 7.828 mV and 3.009 mV and 5.770 mV and 5.919 mV and 7.925 mV and 8.742 mV and 6.803 mV and 7.028 mV
Conduction velocity ([2]; individual mouse): 31.949 m/s and 34.989 m/s and 30.328 m/s and 19.190 m/s and 18.114 m/s and 20.530 m/s and 26.247 m/s and 28.783 m/s
T1 distal ([2]; individual mouse): 7.416 ms and 5.701 ms and 12.428 ms and 5.913 ms and 6.041 ms and 3.664 ms and 4.204 ms and 3.385 ms
T2 proximal ([2]; individual mouse): 7.885 ms and 6.130 ms and 12.922 ms and 6.694 ms and 6.869 ms and 4.395 ms and 4.775 ms and 3.906 ms
IL1B expression reduced by (Microglial (HMC3) cells): 60-70%
IL6 expression reduced by (Microglial (HMC3) cells): 30-40%
